Source: patent US8455475B2 (Gruenenthal GmbH, priority 2009, dated 2013)

target: T1, rat B1R (bradykinin receptor 1) (Rattus norvegicus, UniProt P97583); assay: FLIPR Ca2+ assay (Fluo-4) on CHO K1 cells stably transfected with the B1R gene of the rat (rB1R cells): % inhibition at 10 μM / IC50, agonist Des-Arg9-bradykinin; format: cell-based; conditions: CHO-K1, rat B1R
T1 construct: expressed in transfected cells; host or cells: CHO K1 cells
T1 sequence (P97583 1-337): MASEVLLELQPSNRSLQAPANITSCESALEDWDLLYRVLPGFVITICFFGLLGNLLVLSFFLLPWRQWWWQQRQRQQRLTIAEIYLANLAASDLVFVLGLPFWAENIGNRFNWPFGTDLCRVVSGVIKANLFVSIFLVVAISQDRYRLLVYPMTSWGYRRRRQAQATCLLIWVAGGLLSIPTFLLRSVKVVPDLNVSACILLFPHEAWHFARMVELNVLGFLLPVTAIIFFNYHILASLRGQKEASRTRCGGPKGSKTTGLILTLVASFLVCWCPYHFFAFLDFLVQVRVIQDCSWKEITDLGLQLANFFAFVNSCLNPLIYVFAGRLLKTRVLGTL
Procedure, shortened: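 Using a two-addition FLIPR protocol, compound (10 μM for % values; concentration series for IC50) was preincubated 10–20 min with Fluo-4-loaded B1R-expressing CHO K1 cells before EC80 agonist challenge. Suppression of Ca2+ inflow, read as peak fluorescence, is expressed relative to maximum achievable inhibition; duplicate/triplicate, ≥2 independent experiments.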

Row | Compound | inhibition at 10 µM
1 | O=C(NC1CCc2ccc(C(=O)N3CCC4(CCN(Cc5ccc6ncccc6c5)CC4)C3)cc21)c1sccc1Cl (centres unmarked) [IND_CC-570, 3-Chloro-N-[6-[8-(quinolin-6-yl-methyl)-2,8-diazaspiro[4.5]decane-2-carbonyl]-2,3-dihydro-1H-inden-1-yl]-thiophene-2-carboxylic acid amide] | 57%
2 | O=C(NC1CCc2ccc(C(=O)N3CCC4(CCN(Cc5ccc6nccnc6c5)CC4)C3)cc21)c1sccc1Cl (centres unmarked) [IND_CC-571, 3-Chloro-N-[6-[8-(quinoxalin-6-yl-methyl)-2,8-diazaspiro[4.5]decane-2-carbonyl]-2,3-dihydro-1H-inden-1-yl]-thiophene-2-carboxylic acid amide] | 52%
3 | CN(C(=O)c1ccccc1Cl)C1CCc2ccc(C(=O)N3CCC4(CCN(Cc5cccc(C#N)c5)CC4)C3)cc21 (centres unmarked) [IND_CC-572, 2-Chloro-N-[6-[8-[(3-cyano-phenyl)-methyl]-2,8-diazaspiro[4.5]decane-2-carbonyl]-2,3-dihydro-1H-inden-1-yl]-N-methyl-benzamide] | 80%
4 | O=C(NC1CCc2ccc(C(=O)N3CCC4(CCN(C(=O)c5ccc(F)cc5Cl)CC4)C3)cc21)c1ccccc1Cl (centres unmarked) [IND_CC-575, 2-Chloro-N-[6-[8-(2-chloro-4-fluoro-benzoyl)-2,8-diazaspiro[4.5]decane-2-carbonyl]-2,3-dihydro-1H-inden-1-yl]-benzamide] | 78%
5 | O=C(NC1CCc2ccc(C(=O)N3CCC4(CCN(C(=O)c5ccc(F)cc5F)CC4)C3)cc21)c1ccccc1Cl (centres unmarked) [IND_CC-576, 2-Chloro-N-[6-[8-(2,4-difluoro-benzoyl)-2,8-diazaspiro[4.5]decane-2-carbonyl]-2,3-dihydro-1H-inden-1-yl]-benzamide] | 79%
6 | Cn1nc(C(C)(C)C)cc1C(=O)N1CCC2(CCN(C(=O)c3ccc4c(c3)C(NC(=O)c3ccccc3Cl)CC4)C2)CC1 (centres unmarked) [IND_CC-578, N-[6-[8-(5-tert-Butyl-2-methyl-2H-pyrazole-3-carbonyl)-2,8-diazaspiro-[4.5]decane-2-carbonyl]-2,3-dihydro-1H-inden-1-yl]-2-chloro-benzamide] | 79%
7 | Cc1cc(C(=O)N2CCC3(CCN(C(=O)c4ccc5c(c4)C(NC(=O)c4ccccc4Cl)CC5)C3)CC2)n(C(C)(C)C)n1 (centres unmarked) [IND_CC-579, N-[6-[8-(2-tert-Butyl-5-methyl-2H-pyrazole-3-carbonyl)-2,8-diazaspiro-[4.5]decane-2-carbonyl]-2,3-dihydro-1H-inden-1-yl]-2-chloro-benzamide] | 57%
8 | COc1cc(C)c(C(=O)NC2CCc3ccc(C(=O)N4CCC5(CCN(C(=O)c6cc(C(C)(C)C)nn6C)CC5)C4)cc32)c(C)c1 (centres unmarked) [IND_CC-580, N-[6-[8-(5-tert-Butyl-2-methyl-2H-pyrazole-3-carbonyl)-2,8-diazaspiro[4.5]decane-2-carbonyl]-2,3-dihydro-1H-inden-1-yl]-4-methoxy-2,6-dimethyl-benzamide] | 81%
9 | COc1cc(C)c(C(=O)NC2CCc3ccc(C(=O)N4CCC5(CCN(C(=O)c6cc(C)nn6C(C)(C)C)CC5)C4)cc32)c(C)c1 (centres unmarked) [IND_CC-581, N-[6-[8-(2-tert-Butyl-5-methyl-2H-pyrazole-3-carbonyl)-2,8-diazaspiro[4.5]decane-2-carbonyl]-2,3-dihydro-1H-inden-1-yl]-4-methoxy-2,6-dimethyl-benzamide] | 67%
10 | O=C(NC1CCc2ccc(C(=O)N3CCC4(CCN(C(=O)C5CC5)CC4)C3)cc21)c1sccc1Cl (centres unmarked) [IND_CC-582, 3-Chloro-N-[6-[8-(cyclopropanecarbonyl)-2,8-diazaspiro[4.5]decane-2-carbonyl]-2,3-dihydro-1H-inden-1-yl]-thiophene-2-carboxylic acid amide] | 58%
11 | CC(C)(C)CC(=O)N1CCC2(CC1)CCN(C(=O)c1ccc3c(c1)C(NC(=O)c1sccc1Cl)CC3)C2 (centres unmarked) [IND_CC-583, 3-Chloro-N-[6-[8-(3,3-dimethyl-butanoyl)-2,8-diazaspiro[4.5]decane-2-carbonyl]-2,3-dihydro-1H-inden-1-yl]-thiophene-2-carboxylic acid amide] | 75%
12 | O=C(NC1CCc2ccc(C(=O)N3CCC4(CCN(C(=O)c5ccc(F)cc5Cl)CC4)C3)cc21)c1sccc1Cl (centres unmarked) [IND_CC-584, 3-Chloro-N-[6-[8-(2-chloro-4-fluoro-benzoyl)-2,8-diazaspiro[4.5]decane-2-carbonyl]-2,3-dihydro-1H-inden-1-yl]-thiophene-2-carboxylic acid amide] | 63%
13 | O=C(NC1CCc2ccc(C(=O)N3CCC4(CCN(C(=O)c5ccc(F)cc5F)CC4)C3)cc21)c1sccc1Cl (centres unmarked) [IND_CC-585, 3-Chloro-N-[6-[8-(2,4-difluoro-benzoyl)-2,8-diazaspiro[4.5]decane-2-carbonyl]-2,3-dihydro-1H-inden-1-yl]-thiophene-2-carboxylic acid amide] | 52%
14 | O=C(NC1CCc2ccc(C(=O)N3CCC4(CCN(C(=O)Cc5ccc(Cl)cc5)CC4)C3)cc21)c1sccc1Cl (centres unmarked) [IND_CC-586, 3-Chloro-N-[6-[8-[2-(4-chlorophenyl)-acetyl]-2,8-diazaspiro[4.5]decane-2-carbonyl]-2,3-dihydro-1H-inden-1-yl]-thiophene-2-carboxylic acid amide] | 76%
15 | Cn1nc(C(C)(C)C)cc1C(=O)N1CCC2(CCN(C(=O)c3ccc4c(c3)C(NC(=O)c3sccc3Cl)CC4)C2)CC1 (centres unmarked) [IND_CC-587, N-[6-[8-(5-tert-Butyl-2-methyl-2H-pyrazole-3-carbonyl)-2,8-diazaspiro[4.5]-decane-2-carbonyl]-2,3-dihydro-1H-inden-1-yl]-3-chloro-thiophene-2-carboxylic acid amide] | 71%
16 | Cc1cc(C(=O)N2CCC3(CCN(C(=O)c4ccc5c(c4)C(NC(=O)c4sccc4Cl)CC5)C3)CC2)n(C(C)(C)C)n1 (centres unmarked) [IND_CC-588, N-[6-[8-(2-tert-Butyl-5-methyl-2H-pyrazole-3-carbonyl)-2,8-diazaspiro[4.5]-decane-2-carbonyl]-2,3-dihydro-1H-inden-1-yl]-3-chloro-thiophene-2-carboxylic acid amide] | 61%
17 | CN(C(=O)c1ccccc1Cl)C1CCc2ccc(C(=O)N3CCC4(CCN(C(=O)C5CC5)CC4)C3)cc21 (centres unmarked) [IND_CC-589, 2-Chloro-N-[6-[8-(cyclopropanecarbonyl)-2,8-diazaspiro[4.5]decane-2-carbonyl]-2,3-dihydro-1H-inden-1-yl]-N-methyl-benzamide] | 81%
18 | CN(C(=O)c1ccccc1Cl)C1CCc2ccc(C(=O)N3CCC4(CCN(C(=O)CC(C)(C)C)CC4)C3)cc21 (centres unmarked) [IND_CC-590, 2-Chloro-N-[6-[8-(3,3-dimethyl-butanoyl)-2,8-diazaspiro[4.5]decane-2-carbonyl]-2,3-dihydro-1H-inden-1-yl]-N-methyl-benzamide] | 86%
19 | CN(C(=O)c1ccccc1Cl)C1CCc2ccc(C(=O)N3CCC4(CCN(C(=O)c5ccc(F)cc5Cl)CC4)C3)cc21 (centres unmarked) [IND_CC-591, 2-Chloro-N-[6-[8-(2-chloro-4-fluoro-benzoyl)-2,8-diazaspiro[4.5]decane-2-carbonyl]-2,3-dihydro-1H-inden-1-yl]-N-methyl-benzamide] | 62%
20 | CN(C(=O)c1ccccc1Cl)C1CCc2ccc(C(=O)N3CCC4(CCN(C(=O)Cc5ccc(Cl)cc5)CC4)C3)cc21 (centres unmarked) [IND_CC-592, 2-Chloro-N-[6-[8-[2-(4-chlorophenyl)-acetyl]-2,8-diazaspiro[4.5]decane-2-carbonyl]-2,3-dihydro-1H-inden-1-yl]-N-methyl-benzamide] | 85%
21 | CN(C(=O)c1ccccc1Cl)C1CCc2ccc(C(=O)N3CCC4(CCN(C(=O)c5cc(C(C)(C)C)nn5C)CC4)C3)cc21 (centres unmarked) [IND_CC-593, N-[6-[8-(5-tert-Butyl-2-methyl-2H-pyrazole-3-carbonyl)-2,8-diazaspiro[4.5]-decane-2-carbonyl]-2,3-dihydro-1H-inden-1-yl]-2-chloro-N-methyl-benzamide] | 50%
22 | O=C(NC1CCc2ccc(C(=O)N3CCC4(CC3)CCN(C(=O)c3cnccn3)CC4)cc21)c1ccccc1Cl (centres unmarked) [IND_CC-594, 2-Chloro-N-[6-[9-(pyrazine-2-carbonyl)-3,9-diazaspiro[5.5]undecane-3-carbonyl]-2,3-dihydro-1H-inden-1-yl]-benzamide] | 91%
23 | CSc1ncccc1C(=O)N1CCC2(CCN(C(=O)c3ccc4c(c3)C(NC(=O)c3ccccc3Cl)CC4)CC2)CC1 (centres unmarked) [IND_CC-595, 2-Chloro-N-[6-[9-(2-methylsulfanyl-pyridine-3-carbonyl)-3,9-diazaspiro[5.5]undecane-3-carbonyl]-2,3-dihydro-1H-inden-1-yl]-benzamide] | 91%
24 | N#Cc1ccc(C(=O)N2CCC3(CC2)CCN(C(=O)c2ccc4c(c2)C(NC(=O)c2ccccc2Cl)CC4)CC3)cc1 (centres unmarked) [IND_CC-596, 2-Chloro-N-[6-[9-(4-cyano-benzoyl)-3,9-diazaspiro[5.5]undecane-3-carbonyl]-2,3-dihydro-1H-inden-1-yl]-benzamide] | 94%
25 | O=C(NC1CCc2ccc(C(=O)N3CCC4(CC3)CCN(C(=O)C3CC3)CC4)cc21)c1ccccc1Cl (centres unmarked) [IND_CC-597, 2-Chloro-N-[6-[9-(cyclopropanecarbonyl)-3,9-diazaspiro[5.5]undecane-3-carbonyl]-2,3-dihydro-1H-inden-1-yl]-benzamide] | 101%
26 | CC(C)(C)CC(=O)N1CCC2(CC1)CCN(C(=O)c1ccc3c(c1)C(NC(=O)c1ccccc1Cl)CC3)CC2 (centres unmarked) [IND_CC-598, 2-Chloro-N-[6-[9-(3,3-dimethyl-butanoyl)-3,9-diazaspiro[5.5]undecane-3-carbonyl]-2,3-dihydro-1H-inden-1-yl]-benzamide] | 96%
